We go through 16 compounds from BindingDB's records for patent US9688678 (Abbvie Deutschland, 2017).

SMILES strings stand for the structures.

The target of this test is T1, Vasopressin V1b receptor (Homo sapiens, UniProt P47901).
T1 sequence (P47901 whole entry): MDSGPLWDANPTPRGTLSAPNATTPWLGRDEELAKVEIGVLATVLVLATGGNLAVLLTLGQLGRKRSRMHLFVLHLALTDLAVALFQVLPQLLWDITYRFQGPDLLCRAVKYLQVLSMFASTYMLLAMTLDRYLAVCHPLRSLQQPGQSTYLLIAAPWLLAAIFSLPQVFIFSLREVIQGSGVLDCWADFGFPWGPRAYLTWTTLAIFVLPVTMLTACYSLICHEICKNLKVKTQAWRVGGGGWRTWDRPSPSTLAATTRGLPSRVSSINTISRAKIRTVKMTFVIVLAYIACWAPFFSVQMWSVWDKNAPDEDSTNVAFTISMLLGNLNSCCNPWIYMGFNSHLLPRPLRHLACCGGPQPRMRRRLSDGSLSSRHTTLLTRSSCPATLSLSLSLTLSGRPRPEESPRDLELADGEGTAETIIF
Briefly: Binding Assay. To be noted: pH 7.4; 25 °C. The protocol:
The nonspecific binding was determined with 1 μM AVP (Fluka 94836). All determinations were carried out as duplicate determinations. […] The liquid scintillation measurement took place in a Microbeta TriLux 12 (Wallac).
As for `CCOc1ccc(OC)c(C2(N3CC4(CN(C5CCN(C)CC5)C4)C3)C(=O)N(S(=O)(=O)c3ccc(OC)cc3OC)C3C=CC(C#N)=CC32)c1` (racemic) [US9688678, 2 (+-)-1-(2,4-dimethoxyphenyl)sulfonyl-3-(2-ethoxy-5-methoxy-phenyl)-3-[2-(1-methyl-4-piperidyl)-2,6-diazaspiro[3.3]heptan-6-yl]-2-oxo-indoline-5-carbonitrile], the Ki (usually the equilibrium dissociation constant of an inhibitor or competing ligand from its target) is “in the range around 55 nM”. Turning to `CCOc1ccc(OC)c(C2(N3CC4(CN(C5CCN(C)CC5)C4)C3)C(=O)N(S(=O)(=O)c3cccc4cccnc34)C3C=CC(C#N)=CC32)c1` (racemic) [US9688678, 3 (+-)-3-(2-ethoxy-5-methoxy-phenyl)-3-[2-(1-methyl-4-piperidyl)-2,6-diazaspiro[3.3]heptan-6-yl]-2-oxo-1-(8-quinolylsulfonyl)indoline-5-carbonitrile], the Ki entry is “in the range around 55 nM”. Regarding `CCOc1ccc(OC)cc1C1(N2CC3(CN(C4CCN(C)CC4)C3)C2)C(=O)N(S(=O)(=O)c2cc(C#N)ccn2)C2C=CC(C#N)=CC21` (racemic) [US9688678, 14 (+-)-1-(4-cyanophenyl)sulfonyl-3-(2-ethoxy-5-methoxy-phenyl)-3-[2-(1-methyl-4-piperidyl)-2,6-diazaspiro[3.3]heptan-6-yl]-2-oxo-indoline-5-carbonitrile], the inhibition constant Ki result was “in the range around 55 nM”.

In the case of `CCOc1ccc(OC)cc1C1(N2CC3(CN(C4CCN(C)CC4)C3)C2)C(=O)N(S(=O)(=O)c2cc(F)ccn2)C2C=CC(C#N)=CC21` (racemic) [US9688678, 16 (+-)-3-(2-ethoxy-5-methoxy-phenyl)-1-(4-fluorophenyl)sulfonyl-3-[2-(1-methyl-4-piperidyl)-2,6-diazaspiro[3.3]heptan-6-yl]-2-oxo-indoline-5-carbonitrile], the Ki entry was “in the range around 55 nM”. The value for `CCOc1ccc(OC)cc1C1(N2CC3(CN(N4CCN(C)CC4)C3)C2)C(=O)N(S(=O)(=O)c2ccc(OC)cn2)C2C=CC(C#N)=CC21` (racemic) [US9688678, 17 (+-)-3-(2-ethoxy-5-methoxy-phenyl)-1-[(5-methoxy-2-pyridyl)sulfonyl]-3-[2-(4-methylpiperazin-1-yl)-6-azaspiro[3.3]heptan-6-yl]-2-oxo-indoline-5-carbonitrile] was under 1 nM; that for `CCOc1ccc(OC)cc1C1(N2CC3(CN(C4CCN(C(C)C)CC4)C3)C2)C(=O)N(S(=O)(=O)c2ccc(OC)cn2)C2C=CC(C#N)=CC21` (racemic) [US9688678, 19 (+-)-3-(2-ethoxy-5-methoxy-phenyl)-3-[2-(1-isopropyl-4-piperidyl)-2,6-diazaspiro[3.3]heptan-6-yl]-1-[(5-methoxy-2-pyridyl)sulfonyl]-2-oxo-indoline-5-carbonitrile] was under 1 nM. Compound `COc1ccc(S(=O)(=O)N2C(=O)C(c3cc(OC)ccc3OC)(N3CC4(CN(C5CCN(C)CC5)C4)C3)C3C=C(C#N)C=CC32)nc1` (racemic) [US9688678, 21 (+-)-3-(2,5-dimethoxyphenyl)-1-[(5-methoxy-2-pyridyl)sulfonyl]-3-[2-(1-methyl-4-piperidyl)-2,6-diazaspiro[3.3]heptan-6-yl]-2-oxo-indoline-5-carbonitrile] registered a Ki of under 1 nM. The result for `CCOc1ccc(OC)cc1C1(N2CC3(CN(N4CCN(C)CC4)C3)C2)C(=O)N(S(=O)(=O)c2ccc(OC)cn2)C2C=CC(C#N)=CC21` (single isomer, unassigned; (+)) [US9688678, 17B (+)-3-(2-ethoxy-5-methoxy-phenyl)-1-[(5-methoxy-2-pyridyl)sulfonyl]-3-[2-(4-methylpiperazin-1-yl)-6-azaspiro[3.3]heptan-6-yl]-2-oxo-indoline-5-carbonitrile] reads under 1 nM. The value for `COc1ccc(S(=O)(=O)N2C(=O)C(c3cccnc3OC)(N3CC4(CN(C5CCN(C)CC5)C4)C3)C3C=C(C#N)C=CC32)nc1` (stereo not drawn) [US9688678, 9A (+)-3-(2-ethoxy-3-pyridyl)-1-[(5-methoxy-2-pyridyl)sulfonyl]-3-[2-(1-methyl-4-piperidyl)-2,6-diazaspiro[3.3]heptan-6-yl]-2-oxo-indoline-5-carbonitrile] was under 1 nM.

In turn, `CCOc1ccc(OC)c(C2(N3CC4(CN(C5CCN(C6COC6)CC5)C4)C3)C(=O)N(S(=O)(=O)c3ccc(OC)cn3)C3C=CC(C#N)=CC32)c1` (stereo not drawn) [US9688678, 11 (+)-3-(2-ethoxy-5-methoxyphenyl)-1-((5-methoxypyridin-2-yl)sulfonyl)-3-(6-(1-(oxetan-3-yl)piperidin-4-yl)-2,6-diazaspiro[3.3]heptan-2-yl)-2-oxoindoline-5-carbonitrile] showed a Ki of under 1 nM. The result for `CCOc1cnc(OCC)c(C2(N3CC4(CN(C5CCN(C)CC5)C4)C3)C(=O)N(S(=O)(=O)c3cc(OC)ccn3)C3C=CC(C#N)=CC32)c1` (stereo not drawn) [US9688678, 12 (+-)-3-(2-ethoxy-3-pyridyl)-1-(4-methoxyphenyl)sulfonyl-3-[2-(1-methyl-4-piperidyl)-2,6-diazaspiro[3.3]heptan-6-yl]-2-oxo-indoline-5-carbonitrile] reads “in the range around 55 nM”; that for `COc1ccc(S(=O)(=O)N2C(=O)C(c3ccccc3OC)(N3CC4(CN(C5CCN(C)CC5)C4)C3)C3C=C(C#N)C=CC32)nc1` (stereo not drawn) [US9688678, 18 (+-)3-(2-methoxyphenyl)-1-[(5-methoxy-2-pyridyl)sulfonyl]-3-[2-(1-methyl-4-piperidyl)-2,6-diazaspiro[3.3]heptan-6-yl]-2-oxo-indoline-5-carbonitrile], under 1 nM. The result for `COc1ccc(S(=O)(=O)N2C(=O)C(c3ccccc3OC)(N3CC4(CN(C5CCN(C)CC5)C4)C3)C3C=C(C#N)C=CC32)nc1` (stereo not drawn) [US9688678, 18A (+)-3-(2-methoxyphenyl)-1-[(5-methoxy-2-pyridyl)sulfonyl]-3-[2-(1-methyl-4-piperidyl)-2,6-diazaspiro[3.3]heptan-6-yl]-2-oxo-indoline-5-carbonitrile] reads under 1 nM. In the case of `CCOc1ccc(OC)cc1C1(N2CC3(CN(C4CCN(C)CC4)C3)C2)C(=O)N(S(=O)(=O)c2ccc(OC)cn2)C2C=C(C#N)C=CC21` (stereo not drawn) [US9688678, 29 (+-)-3-(2-ethoxy-5-methoxy-phenyl)-1-[(5-methoxy-2-pyridyl)sulfonyl]-3-[2-(1-methyl-4-piperidyl)-2,6-diazaspiro[3.3]heptan-6-yl]-2-oxo-indoline-6-carbonitrile], the Ki result is “in the range around 5.5 nM”. The result for `CCOc1ccc(OC)cc1[C@]1(N2CC3(CN(C4CCN(C)CC4)C3)C2)C(=O)N(S(=O)(=O)c2cccc(OC)n2)C2C=CC(C#N)=CC21` (stereo partly drawn) [US9688678, 32 (3S)-3-(2-ethoxy-5-methoxy-phenyl)-1-[(6-methoxy-2-pyridyl)sulfonyl]-3-[2-(1-methyl-4-piperidyl)-2,6-diazaspiro[3.3]heptan-6-yl]-2-oxo-indoline-5-carbonitrile] reads “in the range around 55 nM”. The result for `CCOc1ccc(OC)cc1[C@]1(N2CC3(CN(C4CCN(C)CC4)C3)C2)C(=O)N(S(=O)(=O)c2ccc(Cl)cn2)C2C=CC(C#N)=CC21` (stereo partly drawn) [US9688678, 34 (3S)-1-[(5-chloro-2-pyridyl)sulfonyl]-3-(2-ethoxy-5-methoxy-phenyl)-3-[2-(1-methyl-4-piperidyl)-2,6-diazaspiro[3.3]heptan-6-yl]-2-oxo-indoline-5-carbonitrile] reads under 1 nM.
